The text below walks through data of ChEMBL document CHEMBL1165992, “A statistical analysis of in vitro human microsomal metabolic stability of small phenyl group substituents, leading to improved design sets for parallel SAR exploration of a chemical series” (Bioorg Med Chem, 2010).

A short description of one data set: in vitro. To be noted: human.
The target of data set [1] is 11-beta-hydroxysteroid dehydrogenase 1 (Homo sapiens, UniProt P28845). The data set is described as follows: Inhibition of human 11beta-HSD1 by competitive binding assay.
11-beta-hydroxysteroid dehydrogenase 1, sequence (P28845 whole entry): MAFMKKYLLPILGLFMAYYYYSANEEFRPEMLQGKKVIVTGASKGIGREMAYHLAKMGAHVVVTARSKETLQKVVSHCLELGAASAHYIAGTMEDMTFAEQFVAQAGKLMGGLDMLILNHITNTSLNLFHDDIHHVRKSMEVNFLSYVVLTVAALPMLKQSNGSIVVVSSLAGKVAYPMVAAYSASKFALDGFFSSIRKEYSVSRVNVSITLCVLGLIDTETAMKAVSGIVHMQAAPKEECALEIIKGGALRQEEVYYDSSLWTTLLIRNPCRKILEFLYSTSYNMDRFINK

Description for in vitro: Intrinsic clearance in human liver microsomes assessed per mg of microsomal protein at 0.2 to 1 uM after 30 mins by HPLC analysis

`O=C(c1ccc(F)cc1)C1CCN(C(=O)c2cccc(F)c2)CC1` showed a microsomal CLint at 0.5 h, 1 µM in “in vitro” (liver microsomes) of 31.9 µL/min/mg.
Still for that read-out and setting: the result for `CCN(C(=O)NCc1ccc(S(C)(=O)=O)cc1)C1CCN(CCC(c2ccc(F)cc2)C2CCN(Cc3cccnc3)CC2)CC1` (configuration not stated) reads 5 µL/min/mg.
The compound `CCN(C(=O)NCc1ccc(S(C)(=O)=O)cc1)C1CCN(CCC(c2ccc(F)cc2)C2CCN(Cc3ccc4ccccc4n3)CC2)CC1` (configuration not stated) displayed a microsomal CLint at 0.5 h, 1 µM in “in vitro” (liver microsomes) of 3 µL/min/mg.
Still for that read-out and setting: next, `CCN(C(=O)NCc1ccc(S(C)(=O)=O)cc1)C1CCN(CCC(c2ccccc2)C2CCN(Cc3cccnc3)CC2)CC1` (configuration not stated): above 150 µL/min/mg; `O=C(c1ccc(F)cc1)C1CCN(C(=O)c2ccc(Cl)c(Cl)c2)CC1`: 16.5 µL/min/mg.
In turn, `CCN(C(=O)NCc1ccc(F)cc1)C1CCN(CCC(c2ccccc2)c2ccccc2)CC1` had an intrinsic metabolic clearance (microsomal CLint) at 0.5 h, 1 µM in “in vitro” (microsomes) of 105 µL/min/mg.
Regarding `CCN(C(=O)NCc1cccc(F)c1)C1CCN(CCC(c2ccccc2)c2ccccc2)CC1`, the microsomal CLint at 0.5 h, 1 µM in “in vitro” (liver microsomes) came to 86 µL/min/mg.
The same measure, in the same setting: next, `CCN(C(=O)NCc1ccccc1F)C1CCN(CCC(c2ccccc2)c2ccccc2)CC1`: 74 µL/min/mg.
As for `NS(=O)(=O)c1cccc(C(=O)N2CCC(C(=O)c3ccc(F)cc3)CC2)c1`, the IC50 in data set [1] was above 30 µM. The compound further had a microsomal CLint at 0.5 h, 1 µM in the data set “in vitro” (liver microsomes) of 13 µL/min/mg.
Take `O=C(c1ccc(F)cc1)C1CCN(C(=O)c2cccc(C(F)(F)F)c2)CC1`: the microsomal CLint at 0.5 h, 1 µM in “in vitro” (liver microsomes) is 13.7 µL/min/mg.
On the same count and under the same terms, the result for `O=C(c1ccc(F)cc1)C1CCN(C(=O)c2ccc(-c3ccccc3)cc2)CC1` reads 4.93 µL/min/mg.
`O=C(c1ccc(F)cc1)C1CCN(C(=O)c2ccc(Cl)cc2Cl)CC1` registered an IC50 in data set [1] above 30 µM. The same compound yielded a microsomal CLint at 0.5 h, 1 µM in “in vitro” (liver microsomes) of 41.2 µL/min/mg.
Turning to `O=C(c1ccc(F)cc1)C1CCN(C(=O)c2cccc(Cl)c2)CC1`, the microsomal CLint at 0.5 h, 1 µM in “in vitro” (liver microsomes) was 22.2 µL/min/mg.
Turning to `O=C(c1ccc(F)cc1)C1CCN(C(=O)c2cc(F)cc(F)c2)CC1`, in data set [1], the IC50 was above 30 µM. In the data set “in vitro” (liver microsomes), this compound yielded a microsomal CLint at 0.5 h, 1 µM of 25.3 µL/min/mg.
The like results for `COc1ccccc1C(=O)N1CCC(C(=O)c2ccc(F)cc2)CC1` were, in that order, 23.6 µM and 14.3 µL/min/mg.
In the same order, the values of `CS(=O)(=O)c1cccc(C(=O)N2CCC(C(=O)c3ccc(F)cc3)CC2)c1` are above 30 µM and 11.4 µL/min/mg.
The compound `COc1cccc(C(=O)N2CCC(C(=O)c3ccc(F)cc3)CC2)c1` showed a microsomal CLint at 0.5 h, 1 µM in the data set “in vitro” (liver microsomes) of 12.9 µL/min/mg.
In the data set “in vitro” (liver microsomes), `Nc1ccccc1C(=O)N1CCC(C(=O)c2ccc(F)cc2)CC1` showed a microsomal CLint at 0.5 h, 1 µM of 15.6 µL/min/mg.
The same measure, in the same setting: next, `O=C(c1ccc(F)cc1)C1CCN(C(=O)c2ccccc2Cl)CC1`: 32.6 µL/min/mg.
On to `O=C(c1ccc(F)cc1)C1CCN(C(=O)c2ccccc2)CC1`, for which the IC50 in data set [1] came out at 3.61 µM. This compound also had a microsomal CLint at 0.5 h, 1 µM in the data set “in vitro” (liver microsomes) of 23 µL/min/mg.
Compound `O=C(c1ccc(F)cc1)C1CCN(C(=O)c2ccccc2OC(F)(F)F)CC1` gave a microsomal CLint at 0.5 h, 1 µM in “in vitro” (liver microsomes) of 16.9 µL/min/mg.
Still for that read-out and setting: the result for `O=C(c1ccc(F)cc1)C1CCN(C(=O)c2cccc(Br)c2)CC1` reads 19.3 µL/min/mg.
The same measure, in the same setting: next, `CCN(C(=O)NCc1c(F)cccc1F)C1CCN(CCC(c2ccccc2)c2ccccc2)CC1`: 6 µL/min/mg.
`CN(C)c1cccc(C(=O)N2CCC(C(=O)c3ccc(F)cc3)CC2)c1` returned a microsomal CLint at 0.5 h, 1 µM in “in vitro” (liver microsomes) of 53.5 µL/min/mg.
Still for that read-out and setting: the result for `O=C(c1ccc(F)cc1)C1CCN(C(=O)c2ccc(C(F)(F)F)cc2)CC1` reads 15.5 µL/min/mg; that for `COc1ccc(C(=O)N2CCC(C(=O)c3ccc(F)cc3)CC2)c(OC)c1`, 15.8 µL/min/mg.
In turn, `N#Cc1cccc(C(=O)N2CCC(C(=O)c3ccc(F)cc3)CC2)c1` had an IC50 in data set [1] above 30 µM. The compound further registered an intrinsic metabolic clearance (microsomal CLint) at 0.5 h, 1 µM in “in vitro” (liver microsomes) of 14.5 µL/min/mg.
The like results for `COc1ccc(C(=O)N2CCC(C(=O)c3ccc(F)cc3)CC2)cc1` were, in that order, 15.8 µM and 22.6 µL/min/mg.
In data set [1], `O=C(c1ccc(F)cc1)C1CCN(C(=O)c2ccccc2F)CC1` yielded an IC50 of 7.44 µM. Also, in “in vitro” (liver microsomes), the microsomal CLint at 0.5 h, 1 µM amounted to 46.5 µL/min/mg.
In the data set “in vitro” (liver microsomes), `O=C(c1ccc(F)cc1)C1CCN(C(=O)c2ccc(N3CCOCC3)cc2)CC1` yielded a microsomal CLint at 0.5 h, 1 µM of 15.2 µL/min/mg.
Still for that read-out and setting: the result for `Cc1cccc(C(=O)N2CCC(C(=O)c3ccc(F)cc3)CC2)c1` reads 43.6 µL/min/mg.
For the compound `COc1cccc(C(=O)N2CCC(C(=O)c3ccc(F)cc3)CC2)c1OC`, in the data set “in vitro” (liver microsomes), the microsomal CLint at 0.5 h, 1 µM was found to be 14.9 µL/min/mg.
`O=C(c1ccc(F)cc1)C1CCN(C(=O)c2cccc(F)c2F)CC1`: in data set [1], the IC50 was above 30 µM. Besides, the microsomal CLint at 0.5 h, 1 µM in the data set “in vitro” (liver microsomes) was 18 µL/min/mg.
`O=C(c1ccc(F)cc1)C1CCN(C(=O)c2ccc(Cl)c(C(F)(F)F)c2)CC1` returned a microsomal CLint at 0.5 h, 1 µM in “in vitro” (liver microsomes) of 11.5 µL/min/mg.
`NS(=O)(=O)c1ccc(C(=O)N2CCC(C(=O)c3ccc(F)cc3)CC2)cc1` came in with an IC50 in data set [1] above 30 µM. The same compound showed a microsomal CLint at 0.5 h, 1 µM in the data set “in vitro” (liver microsomes) of 12.3 µL/min/mg.
In the same order, the values of `O=C(c1ccc(F)cc1)C1CCN(C(=O)c2ccc(F)cc2)CC1` are 21.8 µM and 17.1 µL/min/mg.
As for `CC(=O)c1ccc(C(=O)N2CCC(C(=O)c3ccc(F)cc3)CC2)cc1`, the microsomal CLint at 0.5 h, 1 µM in the data set “in vitro” (liver microsomes) amounted to 19.8 µL/min/mg.
On the same count and under the same terms, the result for `CCN(C(=O)NCc1ccc(S(C)(=O)=O)cc1)C1CCN(CCC(c2ccccc2)C2CCN(Cc3ccc4ccccc4n3)CC2)CC1` (configuration not stated) reads above 150 µL/min/mg.
In turn, `CS(=O)(=O)Nc1cccc(C(=O)N2CCC(C(=O)c3ccc(F)cc3)CC2)c1` returned an IC50 in data set [1] above 30 µM. In addition, in the data set “in vitro” (liver microsomes), the microsomal CLint at 0.5 h, 1 µM was 9.23 µL/min/mg.
In the same order, the values of `Cc1ccc(C(=O)N2CCC(C(=O)c3ccc(F)cc3)CC2)cc1` are 3.41 µM and 41.8 µL/min/mg.
The like results for `CS(=O)(=O)c1ccc(C(=O)N2CCC(C(=O)c3ccc(F)cc3)CC2)cc1` were, in that order, above 30 µM and 12.4 µL/min/mg.
`Cc1ccccc1C(=O)N1CCC(C(=O)c2ccc(F)cc2)CC1`: the microsomal CLint at 0.5 h, 1 µM in the data set “in vitro” (liver microsomes) was 23.5 µL/min/mg.
The same measure, in the same setting: the result for `O=C(c1ccc(F)cc1)C1CCN(C(=O)c2ccc(OC(F)(F)F)cc2)CC1` reads 17.9 µL/min/mg.
Same read-out and setting: next, `CCN(C(=O)NCc1cc(F)cc(F)c1)C1CCN(CCC(c2ccccc2)c2ccccc2)CC1`: below 3 µL/min/mg.
The same measure, in the same setting: next, `Cc1ncc(-c2ccnc(Nc3ccccc3)n2)n1C(C)C`: 63.5 µL/min/mg.
For `O=C(c1ccc(F)cc1)C1CCN(C(=O)c2ccc(Cl)cc2)CC1`, the IC50 in data set [1] turned out to be 6.02 µM. This compound came in with a microsomal CLint at 0.5 h, 1 µM in “in vitro” (liver microsomes) of 18.6 µL/min/mg.
`O=C(c1ccc(F)cc1)C1CCN(C(=O)c2cccc(OC(F)(F)F)c2)CC1` yielded a microsomal CLint at 0.5 h, 1 µM in the data set “in vitro” (liver microsomes) of 31.8 µL/min/mg.
Same read-out and setting: the result for `O=C(c1ccc(F)cc1)C1CCN(C(=O)c2ccc(F)cc2Cl)CC1` reads 18 µL/min/mg.
The same measure, in the same setting: next, `O=C(c1ccc(F)cc1)C1CCN(C(=O)c2ccc(F)c(F)c2)CC1`: 12.5 µL/min/mg; `N#Cc1ccccc1C(=O)N1CCC(C(=O)c2ccc(F)cc2)CC1`: 28.4 µL/min/mg.
`N#Cc1ccc(C(=O)N2CCC(C(=O)c3ccc(F)cc3)CC2)cc1`: the IC50 in data set [1] was above 30 µM. The microsomal CLint at 0.5 h, 1 µM in the data set “in vitro” (liver microsomes) was 11.7 µL/min/mg.
In “in vitro” (liver microsomes), `O=C(c1ccc(F)cc1)C1CCN(C(=O)c2cccc([N+](=O)[O-])c2)CC1` came in with a microsomal CLint at 0.5 h, 1 µM of 5.3 µL/min/mg.
Still for that read-out and setting: the result for `O=C(c1ccc(F)cc1)C1CCN(C(=O)c2ccc([N+](=O)[O-])cc2)CC1` reads 9 µL/min/mg.
On the same count and under the same terms, the result for `O=C(c1ccc(F)cc1)C1CCN(C(=O)c2ccc(Br)cc2)CC1` reads 22.7 µL/min/mg; that for `CCN(C(=O)NCc1cc(F)ccc1F)C1CCN(CCC(c2ccccc2)c2ccccc2)CC1`, below 4 µL/min/mg.
